Reference: patent publication US20140213538A1, “LYSOPHOSPHATIDIC ACID RECEPTOR ANTAGONISTS” (InterMune, Inc., priority 2013, published 2014)

target: T1, LPA/S1P GPCR of interest (Homo sapiens, UniProt Q92633); experiment: Beta-Arrestin based assay (PathHunter); type: cell-based
T1 construct: host or cells: CHO
Experimental: CMV promoter based DNA constructs expressing a fusion of the LPA/S1P GPCR of interest and ProLink™ tag were used to transfect EA Parental™ CHO cells (DiscoverX, Fremont, Calif.) using a FuGENE® transfection kit (Roche). Beta-Arrestin based assays were conducted 24-48 hrs post transfection using PathHunter® assay kits (DiscoverX, Fremont, Calif.). Agonist and antagonist assays were performed in quadruplicate in white 384 well plates. End point luminescence data were plotted and fit to a 4 parameter logistic function to obtain IC50 values. For antagonist assays, an IC80 concentration of agonist (LPA) equal to 0.5 micromolar was used.

T1 sequence (Q92633 whole entry): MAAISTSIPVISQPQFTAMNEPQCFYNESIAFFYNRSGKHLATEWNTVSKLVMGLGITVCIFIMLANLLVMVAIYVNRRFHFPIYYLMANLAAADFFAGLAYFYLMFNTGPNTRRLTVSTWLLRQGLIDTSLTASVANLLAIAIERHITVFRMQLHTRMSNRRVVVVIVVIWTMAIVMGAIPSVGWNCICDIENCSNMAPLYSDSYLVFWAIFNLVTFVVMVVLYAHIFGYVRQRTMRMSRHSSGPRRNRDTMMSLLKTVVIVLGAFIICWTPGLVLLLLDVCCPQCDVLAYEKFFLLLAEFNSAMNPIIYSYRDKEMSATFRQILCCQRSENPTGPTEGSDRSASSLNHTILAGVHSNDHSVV

| EC50 | Structure (SMILES) |
| --- | --- |
| < 50 nM | Cc1cc(C2(C(=O)O)CC2)c(F)cc1-c1cc2sc(-c3snc(C)c3NC(=O)O[C@H](C)c3ccccc3)cc2s1 [IT343] |
| 50 to 500 nM | Cc1cc(-c2cc3sc(-c4snc(C)c4NC(=O)O[C@H](C)c4ccccc4)cc3s2)c(F)cc1C1(C(=O)O)CC1 [IT338] |
| > 500 nM | Cc1nsc(-c2cc3sc(-c4ccc(CC(=O)O)c(C(F)(F)F)c4)cc3s2)c1NC(=O)O[C@H](C)c1ccccc1 [IT204] |
| > 500 nM | Cc1nsc(-c2cc3sc(-c4ccc5[nH]c(C6(C(=O)O)CC6)nc5c4)cc3s2)c1NC(=O)O[C@H](C)c1ccccc1 [IT421] |
| > 500 nM | C[C@@H](OC(=O)Nc1c(-c2cc3sc(-c4ccc(CC(=O)O)c(S(C)(=O)=O)c4)cc3s2)cnn1C)c1ccccc1 [IT445] |
| 50 to 500 nM | Cc1cc(-c2cc3sc(-c4nnn(C)c4NC(=O)O[C@H](C)c4ccccc4)cc3s2)c(F)cc1C1(C(=O)O)CC1 [IT340] |
| > 500 nM | Cc1nsc(-c2cc3sc(-c4ccc5c(C6(C(=O)O)CC6)coc5c4)cc3s2)c1NC(=O)O[C@H](C)c1ccccc1 [IT397] |
| > 500 nM | C[C@@H](OC(=O)Nc1c(-c2cc3sc(-c4ccc(C5(C(=O)O)CC5)c(S(C)(=O)=O)c4)cc3s2)nnn1C)c1ccccc1 [IT442] |
| > 500 nM | Cc1nsc(-c2cc3sc(-c4ccc(CC(=O)O)cc4OC(F)(F)F)cc3s2)c1NC(=O)O[C@H](C)c1ccccc1 [IT384] |
| < 50 nM | C[C@@H](OC(=O)Nc1c(-c2cc3sc(-c4ccc(C5(C(=O)O)CC5)c(Cl)c4)cc3s2)cnn1C)c1ccccc1 [IT367] |
| > 500 nM | C[C@@H](OC(=O)Nc1c(-c2cc3sc(-c4ccc5occ(C6(C(=O)O)CC6)c5c4)cc3s2)nnn1C)c1ccccc1 [IT335] |
| 50 to 500 nM | Cc1nsc(-c2cc3sc(-c4ccc(CC(=O)O)c(F)c4F)cc3s2)c1NC(=O)O[C@H](C)c1ccccc1 [IT265] |
| 50 to 500 nM | Cc1cc(-c2cc3sc(-c4cnn(C)c4NC(=O)O[C@H](C)c4ccccc4)cc3s2)ccc1C1(C(=O)O)CC1 [IT323] |
| 50 to 500 nM | Cc1nsc(-c2ccc(-c3ccc(C4(C(=O)O)CC4)s3)cc2)c1NC(=O)O[C@H](C)c1ccccc1 [IT237] |
| > 500 nM | COc1cc(-c2cc3sc(-c4snc(C)c4NC(=O)O[C@H](C)c4ccccc4)cc3s2)ccc1CC(=O)O [IT219] |
| < 50 nM | Cc1nsc(-c2cc3sc(-c4cc(F)c(C5(C(=O)O)CC5)cc4F)cc3s2)c1NC(=O)O[C@H](C)c1ccccc1 [IT346] |

| EC50 | Structure (SMILES) |
| --- | --- |
| > 500 nM | Cc1nsc(-c2cc3sc(C4CCC(C(=O)O)C4)cc3s2)c1NC(=O)O[C@H](C)c1ccccc1 (stereo partly shown) [IT276] |
| > 500 nM | COc1cc(C2(C(=O)O)CC2)c(OC)cc1-c1cc2sc(-c3snc(C)c3NC(=O)O[C@H](C)c3ccccc3)cc2s1 [IT413] |
| 50 to 500 nM | Cc1nsc(-c2cc3sc(-c4ccc(C5(C(=O)O)CC5)cc4Cl)cc3s2)c1NC(=O)O[C@H](C)c1ccccc1 [IT391] |
| 50 to 500 nM | C[C@@H](OC(=O)Nc1c(-c2cc3sc(-c4ccc(C5(C(=O)O)CC5)nc4)cc3s2)cnn1C)c1ccccc1 [IT269] |
| < 50 nM | Cc1cc(C2(C(=O)O)CC2)c(F)cc1-c1cc2sc(-c3cnn(C)c3NC(=O)O[C@H](C)c3ccccc3)cc2s1 [IT342] |
| > 500 nM | C[C@@H](OC(=O)Nc1c(-c2cc3sc(-c4ccc5c(C6(C(=O)O)CC6)coc5c4)cc3s2)cnn1C)c1ccccc1 [IT395] |
| 50 to 500 nM | C[C@@H](OC(=O)Nc1c(-c2cc3sc(-c4ccc(C5(C(=O)O)CC5)c(C(F)(F)F)c4)cc3s2)cnn1C)c1ccccc1 [IT379] |
| > 500 nM | Cc1nsc(-c2cc3sc(-c4ccc5[nH]cc(CC(=O)O)c5c4)cc3s2)c1NC(=O)O[C@H](C)c1ccccc1 [IT283] |
| > 500 nM | C[C@@H](OC(=O)Nc1c(-c2cc3sc(-c4ccc(C5(C(=O)O)CC5)c(S(C)(=O)=O)c4)cc3s2)cnn1C)c1ccccc1 [IT441] |
| > 500 nM | Cc1nsc(-c2cc3sc(-c4ccc5scc(CC(=O)O)c5c4)cc3s2)c1NC(=O)O[C@H](C)c1ccccc1 [IT354] |
| < 50 nM | Cc1nsc(-c2cc3sc(-c4ccc(C5(C(=O)O)CC5)cc4F)cc3s2)c1NC(=O)O[C@H](C)c1ccccc1 [IT244] |
| > 500 nM | C[C@@H](OC(=O)Nc1c(-c2cc3sc(-c4ccc5[nH]c(C6(C(=O)O)CC6)nc5c4)cc3s2)nnn1C)c1ccccc1 [IT422] |
| > 500 nM | C[C@@H](OC(=O)Nc1c(-c2cc3sc(-c4ccc(CC(=O)O)c(S(C)(=O)=O)c4)cc3s2)nnn1C)c1ccccc1 [IT443] |
| > 500 nM | COc1cc(-c2cc3sc(-c4snc(C)c4NC(=O)O[C@H](C)c4ccccc4)cc3s2)c(OC)cc1CC(=O)O [IT351] |
| 50 to 500 nM | COc1cc(C2(C(=O)O)CC2)ccc1-c1cc2sc(-c3cnn(C)c3NC(=O)O[C@H](C)c3ccccc3)cc2s1 [IT264] |
| > 500 nM | Cc1nsc(-c2cc3sc(-c4ccc(C5(C(=O)O)CC5)c(S(C)(=O)=O)c4)cc3s2)c1NC(=O)O[C@H](C)c1ccccc1 [IT458] |

More lines, now with the values behind:

| Structure (SMILES) | EC50 |
| --- | --- |
| C[C@@H](OC(=O)Nc1c(-c2ccc(C#CC(=O)N[C@H](C(=O)O)c3ccccc3)cc2)cnn1C)c1ccccc1 [IT402] | > 500 nM |
| C[C@@H](OC(=O)Nc1c(-c2ccc(C#CC(=O)NCCC(=O)O)cc2)cnn1C)c1ccccc1 [IT432] | > 500 nM |
| COc1cc(CC(=O)O)c(F)cc1-c1cc2sc(-c3cnn(C)c3NC(=O)O[C@H](C)c3ccccc3)cc2s1 [IT410] | > 500 nM |
| C[C@@H](OC(=O)Nc1c(-c2ccc(C#CC(=O)NCC(=O)O)cc2)cnn1C)c1ccccc1 [IT398] | > 500 nM |
| C[C@@H](OC(=O)Nc1c(-c2ccc(C#CC(=O)Nc3cccc(C(=O)O)c3)cc2)cnn1C)c1ccccc1 [IT429] | > 500 nM |
| C[C@@H](OC(=O)Nc1c(-c2cc3sc(-c4ccc(-c5nnc(C6(C(=O)O)CC6)s5)cc4)cc3s2)cnn1C)c1ccccc1 [IT287] | > 500 nM |
| Cc1noc(-c2ccc(NC(=O)c3csc(C4(C(=O)O)CC4)n3)cc2)c1NC(=O)O[C@H](C)c1ccccc1 [IT152] | > 500 nM |
| COc1cc(-c2cc3sc(-c4cnn(C)c4NC(=O)O[C@H](C)c4ccccc4)cc3s2)cnc1C1(C(=O)O)CC1 [IT275] | 50 to 500 nM |
| C[C@@H](OC(=O)Nc1c(-c2cc3sc(-c4ccc(CC(=O)O)cc4C(F)(F)F)cc3s2)cnn1C)c1ccccc1 [IT362] | > 500 nM |
| C[C@@H](OC(=O)Nc1c(-c2cc3sc(-c4ccc(-c5nnc(C6(C(=O)O)CC6)o5)cc4)cc3s2)cnn1C)c1ccccc1 [IT217] | > 500 nM |
| CC(C)[C@H](NC(=O)C#Cc1ccc(-c2cnn(C)c2NC(=O)O[C@H](C)c2ccccc2)cc1)C(=O)O [IT404] | > 500 nM |
| C[C@@H](OC(=O)Nc1c(-c2ccc(C#CC(=O)O)cc2)cnn1C)c1ccccc1 [IT371] | > 500 nM |
| Cc1noc(-c2ccc(-c3ccc(OCC(=O)O)cc3)cc2)c1NC(=O)O[C@H](C)c1ccccc1 [IT277] | 50 to 500 nM |
| Cc1cc(-c2cc3sc(-c4cnn(C)c4NC(=O)O[C@H](C)c4ccccc4)cc3s2)ccc1CC(=O)O [IT254] | 50 to 500 nM |
| C[C@@H](OC(=O)Nc1scnc1C#Cc1cc2sc(C3(C(=O)O)CC3)cc2s1)c1ccccc1 [IT116] | > 500 nM |
| COc1cc(-c2cc3sc(-c4nnn(C)c4NC(=O)O[C@H](C)c4ccccc4)cc3s2)ccc1CC(=O)O [IT220] | 50 to 500 nM |
| Cc1cc(CC(=O)O)c(F)cc1-c1cc2sc(-c3nnn(C)c3NC(=O)O[C@H](C)c3ccccc3)cc2s1 [IT253] | 50 to 500 nM |
| C[C@@H](OC(=O)Nc1c(-c2ccc(-c3ncc(C(=O)O)s3)cc2)nnn1C)c1ccccc1 [IT209] | > 500 nM |

| Structure (SMILES) | EC50 |
| --- | --- |
| C[C@@H](OC(=O)Nc1c(-c2cc3sc(-c4ccc(C5(C(=O)O)CC5)cc4OC(F)(F)F)cc3s2)nnn1C)c1ccccc1 [IT386] | 50 to 500 nM |
| Cc1noc(-c2ccc(-c3ccc(Oc4ccc(C(=O)O)cc4)cc3)cc2)c1NC(=O)O[C@H](C)c1ccccc1 [IT368] | > 500 nM |
| C[C@@H](OC(=O)Nc1c(-c2cc3sc(-c4ccc(CC(=O)O)c(F)c4)cc3s2)nnn1C)c1ccccc1 [IT293] | 50 to 500 nM |
| Cc1cc(-c2cc3sc(-c4cnn(C)c4NC(=O)O[C@H](C)c4ccccc4)cc3s2)c(F)cc1CC(=O)O [IT243] | > 500 nM |
| Cc1noc(-c2ccc(-c3ccc(Oc4ccc(C(=O)O)o4)cc3)cc2)c1NC(=O)O[C@H](C)c1ccccc1 [IT388] | 50 to 500 nM |
| C[C@@H](OC(=O)Nc1c(-c2cc3sc(-c4cnc(C5(C(=O)O)CC5)c(F)c4)cc3s2)nnn1C)c1ccccc1 [IT393] | < 50 nM |
| Cc1cc(-c2cc3sc(-c4nnn(C)c4NC(=O)O[C@H](C)c4ccccc4)cc3s2)ccc1CC(=O)O [IT250] | 50 to 500 nM |
| C[C@@H](OC(=O)Nc1c(-c2cc3sc(-c4cc(F)c(Oc5ncccc5C(=O)O)c(F)c4)cc3s2)cnn1C)c1ccccc1 [IT470] | < 50 nM |
| C[C@@H](NC(=O)C#Cc1ccc(-c2cnn(C)c2NC(=O)O[C@H](C)c2ccccc2)cc1)C(=O)O [IT399] | > 500 nM |
| Cc1cc(-c2cc3sc(-c4nnn(C)c4NC(=O)O[C@H](C)c4ccccc4)cc3s2)c(F)cc1CC(=O)O [IT242] | > 500 nM |
| C[C@@H](OC(=O)Nc1c(-c2ccc(-c3ccc(C(=O)O)s3)cc2)nnn1C)c1ccccc1 [IT203] | > 500 nM |
| COc1cc(-c2cc3sc(-c4cnn(C)c4NC(=O)O[C@H](C)c4ccccc4)cc3s2)ccc1CC(=O)O [IT221] | 50 to 500 nM |
| COc1cc(C2(C(=O)O)CC2)c(OC)cc1-c1cc2sc(-c3nnn(C)c3NC(=O)O[C@H](C)c3ccccc3)cc2s1 [IT415] | > 500 nM |
| Cc1nsc(-c2ccc(-c3ncc(C(=O)O)s3)cc2)c1NC(=O)O[C@H](C)c1ccccc1 [IT177] | > 500 nM |
| C[C@H](NC(=O)C#Cc1ccc(-c2cnn(C)c2NC(=O)O[C@H](C)c2ccccc2)cc1)C(=O)O [IT400] | > 500 nM |
| Cc1noc(-c2ccc(-c3ccc(OC(C)C(=O)O)cc3)cc2)c1NC(=O)O[C@H](C)c1ccccc1 (single isomer, unassigned) [IT256] | < 50 nM |
| C[C@@H](OC(=O)Nc1c(-c2cc3sc(-c4ccc(CC(=O)O)c5ccccc45)cc3s2)nnn1C)c1ccccc1 [IT318] | > 500 nM |
